Reference: patent publication US20090047278A1, “Novel Combinational Use of Sulfonamide Compound” (Eisai R & D Management Co., Ltd., priority 2005, published 2009)
pIC50: −log10 of the molar value. Blank lines part the entries; values can stand above or below the compound they belong to.

Columns and labels:
HCT116 cells = experiment: DNA microarray analysis of gene expression changes, correlation and cluster analysis (Example 8); type: cell-based, human; settings: HCT116, 24 hours, at twice the 50% growth inhibitory concentration; different from profiles of the other six compounds
Description: HCT116 cells were cultured in an RPMI-1640 medium supplemented with 10% fetal bovine serum, 100 units/ml penicillin and 100 μg/ml streptomycin. The following cultivation and compound treatment were carried out in an incubator at 5% CO2 and 37° C. HCT116 cells were seeded in 10 cm-diameter cell culture dishes at 2.0×10^6 cells/dish, cultured for 24 hours and subjected to the following compound treatment.
In this example, changes in the gene expression of HCT116 cells upon treatments with 12 compounds, i.e., E7820 (0.16 μM), E7070 (0.26 μM), LY186641 (59 μM), LY295501 (24 μM), LY-573636 (9.6 μM), CQS (4.0 μM), MST16 (100 μM), etoposide (3.6 μM), ethoxzolamide (410 μM), capsaicin (280 μM), trichostatin A (0.16 μM) and kenpaullone (7.1 μM) were examined.
The concentration of each compound used for the treatment was set to twice the 50% growth inhibitory concentration of each compound to the HCT116 cells (based on three days of antiproliferative activity using MTT). The cells were collected 24 hours after the treatment at the concentration indicated in parentheses following each compound name above. Similarly, cells cultured for 24 hours without the addition of any compound were also collected.
Total RNA extraction from the collected cells was performed using TRIZOL reagent (Invitrogen) according to the attached instruction.
Gene expression analysis using a DNA microarray was carried out in the same manner as “(2) Analysis of gene expression using DNA microarray” in Example 7.
This example was conducted for each sample in duplicate (for the convenience of the experiment, samples were given branch numbers like control-1, control-2, E7070-1, E7070-2 and so on for distinction). Then, GeneChip (Affymetrix) system (Human Focus array) was used for analyzing changes in the gene expression induced by each compound.
Twenty-six “.cel” files obtained in this example (13 samples (a control+12 compounds)×2) were subjected to RMA method (robust multi-array average method (Biostatistics (2003), 4, 249-264)) for normal distribution at probe level, and then the logarithm value of the signal intensity at gene level was calculated. Next, the logarithm value of the signal intensity of the untreated group (control-1) was subtracted from the logarithm value of the signal intensity of the compound-treated group for each gene to obtain the logarithm value of the signal ratio of the compound-treated group to control-1. Then, cosine correlation coefficients were calculated as correlation coefficients between the experiments (FIG. 9). Based on these correlation coefficients, hierarchical cluster analysis was performed according to UPGMA method (Unweighted Pair Group Method with Arithmetic mean method) (FIG. 10). Control-2 was also subjected to similar calculation (FIGS. 11 and 12). The softwares used were R 2.0.1 (http://www.r-project.org/) and affy package 1.5.8 (http://www.bioconductor.org).

HCT116-C9 = experiment: Cross-resistance in E7070-resistant cell line, antiproliferative activity by MTT method; type: cell-based, human; settings: Example 11, 72 hours
Description: An E7070-resistant cell line was used to assess the antiproliferative activities of E7820, LY186641, LY295501, LY-ASAP and CQS. HCT116-C9 was a substrain separated from human colon cancer-derived HCT116 (American Type Culture Collection, Manassas, Va., U.S.A.). This HCT116-C9 was cultured in the presence of E7070 while increasing the E7070 concentration by degrees, thereby obtaining E7070-resistant substrains HCT116-C9-C1 and HCT116-C9-C4 (Molecular Cancer Therapeutics, 2002, 1, 275-286).
Three cell lines, i.e., HCT116-C9, HCT116-C9-C1 and HCT116-C9-C4, were each seeded at 3000 cells/well onto a 96-well microplate (flat bottom) (50 μl/well). Twenty-four hours later, they were added with a 3-fold dilution series of each compound (50 μl/well). Seventy-two hours later, the antiproliferative activities were assessed by MTT method (Mossmann T., J. Immunol. Methods, 1983, 65, 55-63). The 50% growth inhibitory concentrations to the cancer cells were obtained by a least square method.
In exactly the same manner as in Example 10, an E7070-resistant cell line was used to assess the antiproliferative activities of LY573636 as well as those of E7070.

[1] = test system: human colon cancer cell line (WiDr); experiment: E7820 and cetuximab in subcutaneous transplant model of WiDr; type: in vivo; settings: WiDr s.c. in nude mouse; E7820 oral 50 mg/kg twice a day, cetuximab i.p. 100 mg/kg twice a week, 2 weeks; Day 1 = first administration
Description: Human colon cancer cell line WiDr (obtained from Dainippon Pharmaceutical) was cultured in RPMI1640 (containing 10% FBS) in a 5% carbon dioxide incubator at 37° C. to about 80% confluence, and the cells were collected with trypsin-EDTA. Using a phosphate buffer, 5×10^7 cells/mL suspension was prepared, and 0.1 mL each of the resulting cell suspension was subcutaneously transplanted to a nude mouse at the side of its body.

[2] = test system: human renal cancer cell line (ACHN); experiment: E7820 and cetuximab in subcutaneous transplant model of ACHN; type: in vivo; settings: ACHN s.c. in nude mouse; E7820 oral 50 mg/kg twice a day, cetuximab i.p. 100 mg/kg twice a week, 2 weeks; Day 1 = first administration
Description: Human renal cancer cell line ACHN (obtained from Dainippon Pharmaceutical) was cultured in RPMI1640 (containing 10% FBS) in a 5% carbon dioxide incubator at 37° C. to about 80% confluence, and the cells were collected with trypsin-EDTA. Using a phosphate buffer, 1×10^8 cells/mL suspension was prepared, and 0.1 mL each of the resulting cell suspension was subcutaneously transplanted to a nude mouse at the side of its body.
Tumor Volume TV=Major axis of tumor(mm)×(Minor axis of tumor)^2 (mm^2)/2

[3] = test system: human non-small-cell lung cancer cell line (A549); experiment: E7820 and gefitinib in subcutaneous transplant model of A549; type: in vivo; settings: A549 s.c. in nude mouse; oral; E7820 50 mg/kg twice a day, gefitinib 75 mg/kg once a day, 3 weeks; Day 1 = first administration
Description: (§1) Human non-small-cell lung cancer cell line A549 (purchased from Dainippon Pharmaceutical) was cultured in RPMI1640 (containing 10% FBS) in a 5% carbon dioxide incubator at 37° C. to about 80% confluence, and the cells were collected with trypsin-EDTA. Using a phosphate buffer containing 50% matrigel, 5×10^7 cells/mL suspension was prepared, and 0.1 mL each of the resulting cell suspension was subcutaneously transplanted to a nude mouse at the side of its body. Ten days after the transplantation, E7820 and gefitinib were orally administered alone or in combination for 50 mg/kg twice a day for 3 weeks and for 75 mg/kg once a day for 3 weeks, respectively. The major and minor axes of tumors were measured with Digimatic caliper (Mitsutoyo), and tumor volumes and relative tumor volumes were calculated according to the following formulae.
Tumor Volume TV=Major axis of tumor(mm)×(minor axis of tumor)^2(mm^2)/2
(§2) Relative Tumor Volume RTV=Tumor volume on measurement day/Tumor volume on the first administration day

[4] = test system: human non-small-cell lung cancer cell line (A549); experiment: E7820 and erlotinib in subcutaneous transplant model of A549; type: in vivo; settings: A549 s.c. in nude mouse; oral; E7820 50 mg/kg twice a day, erlotinib 100 mg/kg once a day, 2 weeks; Day 1 = first administration
Description: as §1, with “body. Seventeen” for “body. Ten”, “and erlotinib” for “and gefitinib”, “for 2” for “for 3”, “for 100” for “for 75”
(§3) Tumor Volume TV=Major axis of tumor(mm)×(Minor axis of tumor)^2(mm^2)/2
as §2

[5] = test system: human non-small-cell lung cancer cell line (PC9); experiment: E7820 and gefitinib in subcutaneous transplant model of PC9; type: in vivo; settings: PC9 s.c. in nude mouse; oral; E7820 50 mg/kg twice a day, gefitinib 75 mg/kg once a day, 2 weeks; Day 1 = first administration
Description: Using a phosphate buffer, 5×10^7 cells/mL suspension was prepared, and 0.1 mL each of the resulting cell suspension was subcutaneously transplanted to a nude mouse at the side of its body. Eight days after the transplantation, E7820 and gefitinib were orally administered alone or in combination for 50 mg/kg twice a day for 2 weeks and for 75 mg/kg once a day for 2 weeks, respectively. The major and minor axes of tumors were measured with Digimatic caliper (Mitsutoyo), and tumor volumes and relative tumor volumes were calculated according to the following formulae.
as §3, §2

Compound: Nc1ccc(S(=O)(=O)Nc2cnc3c(Cl)cccc3n2)cc1 [CQS, 2-sulfanylamide-5-chloroquinoxaline]
- similarity of changes in gene expression (cosine correlation, cluster analysis) among E7070, E7820, LY186641, LY295501, LY573636 and CQS (HCT116 cells): very similar genetic alterations

- pIC50 (HCT116-C9): 6.90
Compound: NS(=O)(=O)c1ccc(S(=O)(=O)Nc2cccc3c(Cl)c[nH]c23)cc1 [E7070, N-(3-chloro-1H-indole-7-yl)-4-sulfamoylbenzenesulfonamide]
- similarity of changes in gene expression (cosine correlation, cluster analysis) among E7070, E7820, LY186641, LY295501, LY573636 and CQS (HCT116 cells): very similar genetic alterations

Compound: Cc1ccc(NS(=O)(=O)c2cccc(C#N)c2)c2[nH]cc(C#N)c12 [E7820, N-(3-cyano-4-methyl-1H-indole-7-yl)-3-cyanobenzenesulfonamide]
- similarity of changes in gene expression (cosine correlation, cluster analysis) among E7070, E7820, LY186641, LY295501, LY573636 and CQS (HCT116 cells): very similar genetic alterations
- Relative tumor volume on Day 15 Average ± standard deviation [1]: 3.3 ± 0.6
- Relative tumor volume on Day 15 Average ± standard deviation [2]: 1.3 ± 0.2
- Relative tumor volume on Day 22 Average ± standard deviation [3]: 3.69 ± 0.68
- Relative tumor volume on Day 15 Average ± standard deviation [4]: 2.62 ± 0.07
- Relative tumor volume on Day 15 Average ± standard deviation [5]: 2.57 ± 0.41

Compound: C#Cc1cccc(Nc2ncnc3cc(OCCOC)c(OCCOC)cc23)c1 [Erlotinib, 4-(3-ethynylphenylamino)-6,7-bis(2-methoxyethoxy)-quinazoline, reference compound]
- Relative tumor volume on Day 15 Average ± standard deviation [4]: 1.94 ± 0.19

Compound: COc1cc2ncnc(Nc3ccc(F)c(Cl)c3)c2cc1OCCCN1CCOCC1 [Gefitinib, 4-(3-chloro-4-fluorophenylamino)-7-methoxy-6-(3-(4-morpholino)propoxy-quinazoline), reference compound]
- Relative tumor volume on Day 22 Average ± standard deviation [3]: 2.26 ± 0.59
- Relative tumor volume on Day 15 Average ± standard deviation [5]: 0.36 ± 0.12

Compound: O=C(Nc1ccc(Cl)cc1)NS(=O)(=O)c1ccc2c(c1)CCC2 [LY186641, N-[[(4-chlorophenyl)amino]carbonyl]-2,3-dihydro-1H-indene-5-sulfonamide]
- similarity of changes in gene expression (cosine correlation, cluster analysis) among E7070, E7820, LY186641, LY295501, LY573636 and CQS (HCT116 cells): very similar genetic alterations

Compound: O=C(Nc1ccc(Cl)c(Cl)c1)NS(=O)(=O)c1ccc2c(c1)CCO2 [LY295501, N-[[(3,4-dichlorophenyl)amino]carbonyl]-2,3-dihydrobenzofuran-5-sulfonamide]
- similarity of changes in gene expression (cosine correlation, cluster analysis) among E7070, E7820, LY186641, LY295501, LY573636 and CQS (HCT116 cells): very similar genetic alterations

Compound: O=C(NS(=O)(=O)c1ccc(Br)s1)c1ccc(Cl)cc1Cl [LY573636, N-(2,4-dichlorobenzoyl)-5-bromothiophene-2-sulfonamide]
- similarity of changes in gene expression (cosine correlation, cluster analysis) among E7070, E7820, LY186641, LY295501, LY573636 and CQS (HCT116 cells): very similar genetic alterations
